This note sets out measurements from PubChem BioAssay AID1671247.

The target of this test is Casein kinase I isoform gamma-2 (Homo sapiens) (UniProt P78368). Briefly: PubChem AID 1671247. Conditions: Z'-LYTE FRET kinase activity assay.
Casein kinase I isoform gamma-2 (Homo sapiens), sequence (P78368 whole entry, looked up, canonical isoform): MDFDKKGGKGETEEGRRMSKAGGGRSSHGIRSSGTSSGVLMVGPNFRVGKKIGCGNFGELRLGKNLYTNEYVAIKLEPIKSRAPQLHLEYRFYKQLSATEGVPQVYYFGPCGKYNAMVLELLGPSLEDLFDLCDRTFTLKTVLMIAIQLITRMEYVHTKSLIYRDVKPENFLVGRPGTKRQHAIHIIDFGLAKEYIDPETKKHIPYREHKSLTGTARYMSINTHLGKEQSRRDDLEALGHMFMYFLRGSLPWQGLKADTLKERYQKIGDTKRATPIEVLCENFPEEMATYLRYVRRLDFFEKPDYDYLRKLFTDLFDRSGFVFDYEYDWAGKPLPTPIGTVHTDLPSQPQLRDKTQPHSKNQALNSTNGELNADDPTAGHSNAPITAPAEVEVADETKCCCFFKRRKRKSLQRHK

Usually IC50 stands for the concentration needed to halve the response being measured. `Brc1c(Br)c(Br)c2n[nH]nc2c1Br`: the IC50 was 26.5 µM.
